Results taken from patent US20240383923A1, “HETEROARYL DERIVATIVE AND USE THEREOF” (VORONOI INC., priority 2022, published 2024).

Assays:
HER2 enzyme = molecular target: T1, HER2 enzyme (Homo sapiens, UniProt P04626); test: Biochemical kinase assay for HER2 (Reaction Biology Corp.); settings: ATP 10 μM, 3-fold dilution from 10 μM
T1 construct: purchased Reaction Biology Corp. (San Diego, USA); outsourced assay service
Protocol: A biochemical kinase assay for HER2 was conducted through Reaction Biology Corp. (San Diego, USA).

Ba/F3 HER2 L755P cells = test: Inhibition of transduced Ba/F3 cell proliferation, HER2 L755P; format: cell-based; settings: Mus musculus, BaF3, 72 hours, CellTiter-Glo
Protocol: (§1) Transduced Ba/F3 cells were cultured by adding 1 μg/mL of puromycin (Invitrogen) to a medium (RPMI-1640) containing 10% fetal bovine serum (FBS). 3,000 Ba/F3 HER2 WT cells were seeded to a white clear bottom 96 well plate (Corning) 24 hours before the Ba/F3 HER2 WT cells were treated with Example compounds. For Ba/F3 HER2 L755S, Ba/F3 HER2 L755P, Ba/F3 HER2 T862A, and Ba/F3 HER2 L869R/T798I cells, 5,000 cells each were seeded to a white clear bottom 96 well plate (Corning) 24 hours before the cells were treated with the compounds. Example Compounds were diluted in dimethylsulfoxide (3-fold diluted, total 11 concentrations) and 0.5 μL each was injected so that the final concentration was 0.2 nM to 10 μM. For the measurement of living cells, the cells were stored at room temperature for 10 minutes using the CellTiter-Glo cell viability reagent (Promega) after 72 hours after the treatment of Example Compounds, and then the luminescence intensity was measured using the reader (SynergyNeo, Biotek). Each test was repeated twice.
(§2) The result value was calculated as a cell growth rate (%) compared to a control group, and the GI50 values were calculated using the software (GraphPad Prism version 8.0), and the results are shown in Table 19 below.

Ba/F3 HER2 L755S cells = test: Inhibition of transduced Ba/F3 cell proliferation, HER2 L755S; format: cell-based; settings: Mus musculus, BaF3, 72 hours, CellTiter-Glo
Protocol: as §1, §2

Ba/F3 HER2 T862A cells = test: Inhibition of transduced Ba/F3 cell proliferation, HER2 T862A; format: cell-based; settings: Mus musculus, BaF3, 72 hours, CellTiter-Glo
Protocol: as §1, §2

N-87 cancer cells = test: Inhibition of N-87 cell proliferation (CellTiter-Glo); format: cell-based; settings: N-87 cells, 72 hours
Protocol: N-87 cancer cells were cultured by using RPMI-1640 medium with 10% FBS. The N-87 cancer cells were seeded to a white clear bottom 96 well plate (Corning) at 5,000 cells per well 24 hours before the […] cancer cells were treated with Example Compounds. Example Compounds were diluted in dimethylsulfoxide (5-fold diluted, total 11 concentrations) and 0.5 μL each was injected so that the final concentration was […]. For the measurement of living cells, the cells were stored at room temperature for 10 minutes using the CellTiter-Glo cell viability reagent (Promega) after 72 hours after the treatment of Example Compounds, and then the luminescence intensity was measured using the reader (SynergyNeo, Biotek).
The result value was calculated as a cell growth rate (%) compared to a control group. Graphs were plotted and GI50 values were calculated using the GraphPad Prism version 8.0 program, and the results are shown in Table 18 below.

BT-474 cancer cells = test: Inhibition of BT-474 cell proliferation (CellTiter-Glo); format: cell-based; settings: Homo sapiens, BT-474 cells, 120 hours
Procedure, shortened: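 BT-474 cells in RPMI-1640 with 20% FBS, seeded 48 h before dosing with 11 three-fold dilutions (final 0.2 nM to 10 μM). Viability read by CellTiter-Glo luminescence 120 h after treatment, triplicate tests. GI50 derived from growth rate (%) versus control.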

[1] = tested on: Ba/F3 HER2 L869R/T798I cells; test: Inhibition of transduced Ba/F3 cell proliferation, HER2 L869R/T798I; format: cell-based; settings: Mus musculus, BaF3, 72 hours, CellTiter-Glo
Protocol: as §1, §2

Ba/F3 HER2 WT cells = test: Inhibition of transduced Ba/F3 cell proliferation, HER2 WT; format: cell-based; settings: Mus musculus, BaF3, 72 hours, CellTiter-Glo
Protocol: as §1, §2

T1 sequence (P04626 23-1255): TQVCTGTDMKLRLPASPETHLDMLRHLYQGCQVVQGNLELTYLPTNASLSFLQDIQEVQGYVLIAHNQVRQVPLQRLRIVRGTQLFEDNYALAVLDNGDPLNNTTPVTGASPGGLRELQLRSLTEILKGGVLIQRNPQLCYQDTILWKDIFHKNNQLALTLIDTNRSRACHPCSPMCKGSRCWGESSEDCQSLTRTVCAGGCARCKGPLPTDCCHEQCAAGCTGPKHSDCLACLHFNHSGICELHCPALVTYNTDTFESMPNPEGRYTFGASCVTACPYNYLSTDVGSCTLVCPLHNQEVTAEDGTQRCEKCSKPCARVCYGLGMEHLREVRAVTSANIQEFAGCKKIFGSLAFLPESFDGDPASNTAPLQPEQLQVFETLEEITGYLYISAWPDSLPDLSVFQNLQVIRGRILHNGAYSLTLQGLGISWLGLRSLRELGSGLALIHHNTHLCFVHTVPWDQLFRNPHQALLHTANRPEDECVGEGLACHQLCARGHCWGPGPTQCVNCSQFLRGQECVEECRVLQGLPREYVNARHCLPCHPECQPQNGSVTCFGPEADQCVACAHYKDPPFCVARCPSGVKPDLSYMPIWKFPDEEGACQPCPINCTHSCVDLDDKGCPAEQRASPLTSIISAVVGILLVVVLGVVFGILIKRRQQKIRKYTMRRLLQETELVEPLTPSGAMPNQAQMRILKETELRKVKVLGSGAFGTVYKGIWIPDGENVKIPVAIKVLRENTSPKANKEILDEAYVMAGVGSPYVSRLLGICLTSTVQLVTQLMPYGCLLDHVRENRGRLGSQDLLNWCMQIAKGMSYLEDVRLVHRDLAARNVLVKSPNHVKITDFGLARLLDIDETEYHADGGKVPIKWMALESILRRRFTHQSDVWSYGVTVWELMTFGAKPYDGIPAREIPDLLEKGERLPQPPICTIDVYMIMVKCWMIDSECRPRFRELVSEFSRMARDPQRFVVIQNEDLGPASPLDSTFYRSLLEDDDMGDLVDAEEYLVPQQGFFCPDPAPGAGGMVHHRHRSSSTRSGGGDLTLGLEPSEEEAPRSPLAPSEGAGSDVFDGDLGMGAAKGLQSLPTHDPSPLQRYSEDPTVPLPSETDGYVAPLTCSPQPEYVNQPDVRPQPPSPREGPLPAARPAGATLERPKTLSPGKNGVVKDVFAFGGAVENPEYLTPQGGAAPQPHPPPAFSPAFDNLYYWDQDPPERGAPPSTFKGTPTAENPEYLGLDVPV

COc1cc2ncnc(Nc3cc(F)c(Oc4ccn5ncnc5c4)cc3OC)c2cc1NC(=O)/C(F)=C/[C@H]1CCCN1C [Example 50, (R,Z)—N-(4-((4-([1,2,4]triazolo[1,5-a]pyridin-7-yloxy)-5-fluoro-2-methoxyphenyl)amino)-7-methoxyquinazolin-6-yl)-2-fluoro-3-(1-methylpyrrolidin-2-yl)acrylamide]
≤ 0.05 µM: IC50 (HER2 enzyme) | GI50 (Ba/F3 HER2 L755P cells) | GI50 (Ba/F3 HER2 L755S cells) | GI50 (Ba/F3 HER2 T862A cells) | GI50 (N-87 cancer cells) | GI50 (BT-474 cancer cells) | GI50 [1] | GI50 (Ba/F3 HER2 WT cells)

COc1cc2ncnc(Nc3cc(Cl)c(Oc4ccn5ncnc5c4)cc3OC)c2cc1NC(=O)/C(F)=C/[C@H]1CCCN1C [Example 128, (R,Z)—N-(4-((4-([1,2,4]triazolo[1,5-a]pyridin-7-yloxy)-5-chloro-2-methoxyphenyl)amino)-7-methoxyquinazolin-6-yl)-2-fluoro-3-(1-methylpyrrolidin-2-yl)acrylamide]
≤ 0.05 µM: IC50 (HER2 enzyme) | GI50 (Ba/F3 HER2 L755P cells) | GI50 (Ba/F3 HER2 L755S cells) | GI50 (Ba/F3 HER2 T862A cells) | GI50 (N-87 cancer cells) | GI50 (BT-474 cancer cells) | GI50 [1] | GI50 (Ba/F3 HER2 WT cells)
